Data on two compounds can be found in patent US6686449B2, “Mutant presenilin 1 polypeptides” (Pharmacia & Upjohn Company, priority 2000, dated 2004).

Common to all, as to type: cell-based, human
Experiment [1] has as its system Aβ1-40 production in H125.3-16 (APP-Sw-KK) and APA2 (APP-Sw-KK and PS1-wt) cells. The experiment can be described thus: Inhibition assay, stable cell lines: Elisa of Aβ1-40 in conditioned media, PS1wt cell lines. Conditions: PS1wt cell lines (H125.3-16, APA2). An excerpt:
(§1) The purpose of the experiment was to assess the effect of compounds known or postulated to have an effect on processing at the proposed gamma cleavage site
(§2) The compounds used were L685,458 (Bachem Cat # H-5106) described by Li et al (15), one we have designated 512088, a fenchylamine sulfonamide inhibitor described by Rishton et al. (16). Z-Leu-Leu-Leu-H, also known as MG132 (Peptide Institute Cat # 3175-v) described by Tajima et al (17), and DMSO (Aldrich Cat # 27,685-5) as a vehicle control. All drugs were resuspended in DMSO at a concentration of 10 mM. Serial dilutions of the drugs were made in cell culture media [DMEM (Gibco cat # 11965-092) supplemented with 10% fetal bovine serum, 1 mM sodium pyruvate, 100 units/ml penicillin G, 100 ug/ml streptomycin sulfate, and 400 ug/ml Geneticin]. Stable cell lines used for drug testing were H125.3-16 (expressing APP-Sw-KK), APA2 (co-expressing APP-Sw-KK and PS1-wt), APB10 (co-expressing APP-Sw-KK and PS1-DTG385), and APD3 (co-expressing APP-Sw-KK and PS1-M146V). […] Conditioned media was harvested 24 hours post-treatment and analyzed in an Elisa assay for Aβ40 or Aβ42 levels (Described below). […]
(§3) Primary Antibody 6E10 was purchased from Senetek PLC (St. Louis, Mo.). […] Plates were read on a Molecular Devices Thermomax Plate Reader with integrated software that calculated the data and analyzed confidence values for the samples. […]

For experiment [2], the system named is Aβ1-42 production in H125.3-16 (APP-Sw-KK) and APA2 (APP-Sw-KK and PS1-wt) cells. The experiment can be described thus: Inhibition assay, stable cell lines: Elisa of Aβ1-42 in conditioned media, PS1wt cell lines. Conditions: for dose response profile, Aβ1-42 production: PS1wt cell lines (H125.3-16, APA2).
Source text: as §1
(§4) The compounds used were L685,458 (Bachem Cat # H-5106) described by Li et al (15), one we have designated 512088, a fenchylamine sulfonamide inhibitor described by Rishton et al. (16). Z-Leu-Leu-Leu-H, also known as MG132 (Peptide Institute Cat # 3175-v) described by Tajima et al (17), and DMSO (Aldrich Cat # 27,685-5) as a vehicle control. All drugs were resuspended in DMSO at a concentration of 10 mM. Serial dilutions of the drugs were made in cell culture media [DMEM (Gibco cat # 11965-092) supplemented with 10% fetal bovine serum, 1 mM sodium pyruvate, 100 units/ml penicillin G, 100 ug/ml streptomycin sulfate, and 400 ug/ml Geneticin]. Stable cell lines used for drug testing were H125.3-16 (expressing APP-Sw-KK), APA2 (co-expressing APP-Sw-KK and PS1-wt), APB10 (co-expressing APP-Sw-KK and PS1-DTG385), and APD3 (co-expressing APP-Sw-KK and PS1-M146V). APP-Sw-KK (An APP construct with a di-lysine motif at the C terminus) has been described in U.S. patent application Ser. No. 09/416901 filed Oct. 13, 1999 and also in WO 00/17369 “Alzheimer's Disease Secretase” published Mar. 30, 2000. Cells were plated at a concentration of 2.5×10^4 or 5.0×10^4 cells per well of a 96 well dish on day 1. Cells were treated with various concentrations of drugs on day 3. Conditioned media was harvested 24 hours post-treatment and analyzed in an Elisa assay for Aβ40 or Aβ42 levels (Described below). An MTS assay (Promega) was performed on the cells 24 hours post-treatment to assess toxicity levels of the drugs.
as §3

Experiment [3] concerns Aβ1-40 production in APB10 cells (APP-Sw-KK and PS1-DTG385). In words: Inhibition assay, stable cell lines: Elisa of Aβ1-40 in conditioned media, PS1-DTG385 cell line.
Source text: as §1, §2, §3

Experiment [4] concerns Aβ1-42 production in APB10 cells (APP-Sw-KK and PS1-DTG385). The experiment can be described thus: Inhibition assay, stable cell lines: Elisa of Aβ1-42 in conditioned media, PS1-DTG385 cell line. Conditions: for dose response profile, Aβ1-42 production: PS1-DTG385 cell line.
Source text: as §1, §4
Primary Antibody 6E10 was purchased from Senetek PLC (St. Louis, Mo.). Secondary Antibodies 162, 163, 164 and 165 were purchased from New York Institute for Basic Research (Staten Island, N.Y.). β Bachem (Torrence, Calif.). β-Amyloid 1-40 is cat #ZN571) and 1-42 is cat #ZN327) Neutravidin was purchased from Pierce (Rockford, Ill.). The tetramethylbenzidine color development system was purchased from Kirkigaard & Perry Laboratories Inc. (Gaithersburg, Md.). Plates were read on a Molecular Devices Thermomax Plate Reader with integrated software that calculated the data and analyzed confidence values for the samples.
The coating buffer is 0.1M NaHCO3, pH8.2. Wash buffer is Dulbecco's PBS+0.05% Tween 20 (PBST). Blocking buffer is PBST+1% BSA (make up fresh the day of assay). The substrate is TMB Kirkegaard & Perry Labs. (cat.no.50-76-03). Plates are Costar 96 well half area EIA plates (cat.no.3690). Supplemental BSA is supplied as PBST+10% BSA made fresh on the day of assay.
1. Coat half area 96 well plates (Costar 3690) overnight @ 4° C. with capture antibody 6E10 (50 μl/well) made at […] in coating buffer, pH8.2.
2. Wash plates on an automatic plate washer 1× with wash buffer (175 μl/well).
3. Add 75 ul of blocking buffer to each well. Incubate 1 hr. @room temperature, then wash 3×.
4. Make standard curves from fresh aliquots for each amyloid in blocking buffer as follows:
b. Aβ 1-42 (10 μM. stock in DMSO): Make an initial dilution of […] then follow the instructions for Abeta 1-40 starting at the 1:100 dilution.
5. Add 50 μl of each std. (use duplicates) or sample dilution into the appropriate wells.
Incubate the standards and unknown samples @ room temperature for 3 to 4 hrs. If the samples being assayed contain no protein, 5 μl. of supplemental 10% BSA should be added to the sample wells before adding 50 μl. of sample.
6. […]

For experiment [5], the system named is gamma-secretase (Aβ1-40 and Aβ1-42 production in three stable cell lines). In words: Inhibition assay, stable cell lines: overall potency on Aβ1-40 and Aβ1-42 production. To be noted: greater than 512088.
Source text: as §1
The compounds used were L685,458 (Bachem Cat # H-5106) described by Li et al (15), one we have designated 512088, a fenchylamine sulfonamide inhibitor described by Rishton et al. (16). Z-Leu-Leu-Leu-H, also known as MG132 (Peptide Institute Cat # 3175-v) described by Tajima et al (17), and DMSO (Aldrich Cat # 27,685-5) as a vehicle control. All drugs were resuspended in DMSO at a concentration of 10 mM. Serial dilutions of the drugs were made in cell culture media [DMEM (Gibco cat # 11965-092) supplemented with 10% fetal bovine serum, 1 mM sodium pyruvate, 100 units/ml penicillin G, 100 ug/ml streptomycin sulfate, and 400 ug/ml Geneticin]. Stable cell lines used for drug testing were H125.3-16 (expressing APP-Sw-KK), APA2 (co-expressing APP-Sw-KK and PS1-wt), APB10 (co-expressing APP-Sw-KK and PS1-DTG385), and APD3 (co-expressing APP-Sw-KK and PS1-M146V). APP-Sw-KK (An APP construct with a di-lysine motif at the C terminus) has been described in U.S. patent application Ser. No. 09/416901 filed Oct. 13, 1999 and also in WO 00/17369 “Alzheimer's Disease Secretase” published Mar. 30, 2000. […] Conditioned media was harvested 24 hours post-treatment and analyzed in an Elisa assay for Aβ40 or Aβ42 levels (Described below). […]

Where a SMILES comes first, the peptide text is derived from it. The star is where a group is joined. Cbz = O=C(OCc1ccccc1)*

For `CC(C)C[C@@H](C=O)NC(=O)[C@H](CC(C)C)NC(=O)[C@H](CC(C)C)NC(=O)OCc1ccccc1` [MG132, Z-Leu-Leu-Leu-H] (Cbz-Leu-Leu-Leu-aldehyde), the “dose response profile, inhibition of Aβ1-40” value in experiment [1] is given as “not strongly biphasic in any of the cell lines except the parental PS1wt HEK125.3-16”; in experiment [3] it was “not strongly biphasic”. For the same compound, the “dose response profile, Aβ1-42 production” value in experiment [2] is reported as “strongly biphasic”; in experiment [4] it was “not strongly biphasic”. Besides, the “peak in the dose response (Aβ1-42)” value in experiment [2] (PS1wt cell lines, FIG. 8) came to 10 µM; in experiment [4] (PS1DTG385 cells, FIG. 8), 0.3 µM. Moreover, in experiment [4] (PS1DTG385 cells), the “potentiation of production of Aβ1-42 relative to Aβ1-40” value is reported as “does not happen”.
As for `CC(C)C[C@H](NC(=O)[C@H](Cc1ccccc1)C[C@@H](O)[C@H](Cc1ccccc1)NC(=O)OC(C)(C)C)C(=O)N[C@@H](Cc1ccccc1)C(N)=O` [L685,458], the “potency relative to 512088” value in experiment [5] is recorded as “approximately 10 fold”. In addition, the “dose response profile, inhibition of Aβ1-40” value in experiment [1] is given as “biphasic dose response”; in experiment [3], “linear decrease”. For the same compound, the figures for the “dose response profile, Aβ1-42 production” value in experiment [2] and in experiment [4] were “biphasic” and “clearly biphasic”, respectively. The “shift of the dose response compared with the PS1wt cell lines” value in experiment [4] (PS1DTG385 cells) was “slightly lower potency”.
